According to US4438142A, “Pharmaceutical combination” (Burroughs Wellcome Co., priority 1982, dated 1984):

Tested on: rat
Test: Analgesic Activity: Rat Hot Plate Assay
Type: in vivo
Settings: for ED50: po, 1 h, p.o. in rat, single substance, 60 min prior to testing, plate 45±1.0° C., ± standard error
Description: The rat hot plate assay incorporated two modifications of the mouse hot plate assay originally described by Eddy et al., J. Pharmacol. Exp. Ther. 98, 121-137 (1950). The first modification was enlargement of the diameter of the cylindrical (water filled) copper plate to 25.0 cm to accommodate rats instead of mice. The second modification was the use of a temperature controller to regulate a 250 watt infrared heat lamp which was activated via a thermistor probe attached to the under surface of the copper plate, the temperature of which was thus maintained at 45±1.0° C. (N=28 measurements of the plate temperature under experimental conditions). The time required for a rat placed on the hot plate to respond by lifting, shaking or licking either of its hind or forelimbs was recorded in tenths of a second. Only animals responding in pretest within 6-13 seconds were used in the studies. The combination, comprising an intimate mixture of codeine phosphate with compound I, was suspended in 0.5% sodium carboxymethylcellulose and administered orally, by gavage, in a volume of 1.00 ml/100 g.b. wt. 60 min prior to testing. […] The reaction time of 18.3 seconds represented the sum of the mean pretest times of 40 untreated rats plus the time of 3 standard deviations of the mean. ED50 's and their standard errors were estimated from a graph of the dose-response curves using the method of Miller and Tainter (Proc. Soc. Exp. Biol. Med. 57, 261-262 (1944). Following this procedure the analgesic activities of codeine, compound I and the combination (codeine+compound I) were compared (Table I).

Row | SMILES | ED50 [mg/kg] | potentiation of the analgesic activity of codeine (upon oral administration, compound I with codeine, species not stated)
1 | COc1ccc2c3c1O[C@H]1[C@@H](O)C=C[C@H]4[C@@H](C2)N(C)CC[C@@]341 [Codeine Phosphate, reference compound] | 57 ± 35.3 | –
2 | O=C1CCCN1c1ccc2c(c1)OCO2 [Compound I, 1-(1,3-benzodioxol)-5-yl-2-pyrrolidinone] | 86 ± 16.5 | four to seven
